Where “and” joins values, the source holds several entries; their conditions need not be identical. Equal values may be shown once.
How the values were obtained:
[1] = tested on: Tropical corn; assay: Treatment of tropical corn with single or multiple applications of 1-MCP, crop yield; format: in vivo; conditions: for Yield increase in kg/ha, Single app. @ V3-5: single application at stage of 3-5 fully collared leaves; for Yield increase in kg/ha, Single app @ V10: single application at stage of 10 leaves; for Yield increase in kg/ha, Double app. @ V3&10: two applications, 3-5 fully collared leaves and 10 leaf stage
Experimental: Tropical corn is treated with a combination of extruded granules of dextrose containing 0.1% 1-MCP and coated sand granules also containing 0.1% 1-MCP. The plants are treated with (1) a single application at the stage of 3-5 fully collared leaves; (2) a single application at the stage of 10 leaves; or (3) two applications with a first application at stage of 3-5 fully collared leaves and a second application at the 10 leaf stage. Dosages of 5 g/hectare, 10 g/hectare, and 25 g/hectare 1-MCP are applied for each of the three different treatment regimes.
The results are presented in Table 1 and FIG. 1 with yield being measured in kg/hectare. For each dosage amount the left bar designates treatment 1 (a single application at the stage of 3-5 fully collared leaves), the middle bar designates treatment 2 (a single application at the stage of 10 leaves), and the right hand bar designates treatment 3 (application at both the stage of 3-5 fully collared leaves and again at the 10 leaf stage). For each of the 5 g/hectare treatment, the 10 g/hectare treatment, and the 25 g/hectare treatment, the yield is increased by more than 150% for plants undergoing two treatments when compared to plants treated only once.

[2] = tested on: cotton; assay: Treatment of tropical cotton with single or multiple applications of 1-MCP, seed cotton yield; format: in vivo; conditions: 9.6 GAI/HA
Experimental: Four different replicates of treatment of cotton are performed. […] Treatment A designates application of cyclopropene at the stage of Pin Head Square +14 days. Treatment B designates application of cyclopropene at the stage of first flowers. […]

CC1=CC1 [1-MCP, 1-methylcyclopropene]
Yield increase in kg/ha, Single app. @ V3-5 ([1]; 5 g/ha 1-MCP): 506 kg/ha
Yield increase in kg/ha, Single app @ V10 ([1]; 5 g/ha 1-MCP): 351 kg/ha
Yield increase in kg/ha, Double app. @ V3&10 ([1]; 5 g/ha 1-MCP): 1082 kg/ha
yield increase for plants undergoing two treatments compared to plants treated only once ([1]; 5 g/hectare treatment): more than 150%
Yield increase in kg/ha, Single app. @ V3-5 ([1]; 10 g/ha 1-MCP): 557 kg/ha
Yield increase in kg/ha, Single app @ V10 ([1]; 10 g/ha 1-MCP): 618 kg/ha
Yield increase in kg/ha, Double app. @ V3&10 ([1]; 10 g/ha 1-MCP): 1580 kg/ha
yield increase for plants undergoing two treatments compared to plants treated only once ([1]; 10 g/hectare treatment): more than 150%
Yield increase in kg/ha, Single app. @ V3-5 ([1]; 20-25 g/ha 1-MCP): 826 kg/ha
Yield increase in kg/ha, Single app @ V10 ([1]; 20-25 g/ha 1-MCP): 543 kg/ha
Yield increase in kg/ha, Double app. @ V3&10 ([1]; 20-25 g/ha 1-MCP): 1539 kg/ha
yield increase for plants undergoing two treatments compared to plants treated only once ([1]; 25 g/hectare treatment): more than 150%
Yield difference between treated plots and untreated checks, Double Applications AB: Floral buds enlarged/Early bloom, average ([2]; average of trials 1-5): 713 kg/ha of seed cotton
Yield difference between treated plots and untreated checks, Double Applications BC: Early bloom/10% of bolls at final size, average ([2]; average of trials 1-5): 796 kg/ha of seed cotton
Yield difference between treated plots and untreated checks, Single Application A: Floral buds distinctly enlarged, average ([2]; average of trials 1-5): 577 kg/ha of seed cotton
Yield difference between treated plots and untreated checks, Single Application B: Early bloom, average ([2]; average of trials 1-5): 568 kg/ha of seed cotton
Yield difference between treated plots and untreated checks, Single Application C: 10% of bolls at final size, average ([2]; average of trials 1-5): 512 kg/ha of seed cotton
Yield difference between treated plots and untreated checks, Double Applications AB: Floral buds enlarged/Early bloom ([2]; individual trials 1-5): 560 kg/ha of seed cotton and 185 kg/ha of seed cotton and 883 kg/ha of seed cotton and 1563 kg/ha of seed cotton and 375 kg/ha of seed cotton
Yield difference between treated plots and untreated checks, Double Applications BC: Early bloom/10% of bolls at final size ([2]; individual trials 1-5): 696 kg/ha of seed cotton and 262 kg/ha of seed cotton and 1042 kg/ha of seed cotton and 1667 kg/ha of seed cotton and 313 kg/ha of seed cotton
Yield difference between treated plots and untreated checks, Single Application A: Floral buds distinctly enlarged ([2]; individual trials 1-5): 571 kg/ha of seed cotton and 167 kg/ha of seed cotton and 767 kg/ha of seed cotton and 1132 kg/ha of seed cotton and 250 kg/ha of seed cotton
Yield difference between treated plots and untreated checks, Single Application B: Early bloom ([2]; individual trials 1-5): 839 kg/ha of seed cotton and 369 kg/ha of seed cotton and 767 kg/ha of seed cotton and 757 kg/ha of seed cotton and 106 kg/ha of seed cotton
Yield difference between treated plots and untreated checks, Single Application C: 10% of bolls at final size ([2]; individual trials 1-5): 780 kg/ha of seed cotton and 280 kg/ha of seed cotton and 792 kg/ha of seed cotton and 715 kg/ha of seed cotton and −6 kg/ha of seed cotton
